Source: the NIST ThermoML archive (doi:10.1016/j.jct.2010.12.021)
Values joined by “and” are separate entries in the source; they are usually repeats but may differ in a detail not shown here. Equal entries are not always repeated.

Test: molar heat capacity at constant pressure
Settings: 101.33 kPa, Crystal, Small sample (50 mg) DSC

CCCCCC[n+]1cccc2ccccc21.O=S(=O)([N-]S(=O)(=O)C(F)(F)F)C(F)(F)F [1-hexylquinolinium bis(trifluoromethylsulfonyl)amide]
Settings | molar heat capacity at constant pressure
203.04 K | 300.57 J/K/mol [middle of 4 runs]
203.05 K | 300.39 J/K/mol and 306.52 J/K/mol
203.06 K | 305.88 J/K/mol
203.08 K | 302.69 J/K/mol
203.13 K | 298.95 J/K/mol
203.21 K | 298.13 J/K/mol
203.35 K | 295.39 J/K/mol
203.56 K | 285.68 J/K/mol
203.85 K | 280.12 J/K/mol
204.22 K | 282.02 J/K/mol
204.66 K | 288.24 J/K/mol
205.16 K | 293.91 J/K/mol
205.7 K | 295.33 J/K/mol
206.26 K | 301.86 J/K/mol
206.82 K | 315.29 J/K/mol
207.36 K | 320.59 J/K/mol
207.9 K | 319.02 J/K/mol
208.43 K | 317.61 J/K/mol
208.95 K | 317.22 J/K/mol
209.48 K | 316.74 J/K/mol
210.02 K | 313.5 J/K/mol
210.58 K | 310.53 J/K/mol
211.15 K | 311.06 J/K/mol
211.74 K | 311.71 J/K/mol
212.32 K | 311.41 J/K/mol
212.92 K | 311.93 J/K/mol
213.51 K | 313.38 J/K/mol
214.11 K | 314.64 J/K/mol
214.7 K | 315.47 J/K/mol
215.3 K | 316.35 J/K/mol
215.9 K | 317.1 J/K/mol
216.5 K | 317.71 J/K/mol
217.1 K | 318.5 J/K/mol
217.7 K | 319.34 J/K/mol
218.3 K | 320.14 J/K/mol
218.9 K | 320.94 J/K/mol
219.5 K | 321.78 J/K/mol
220.1 K | 322.65 J/K/mol
220.7 K | 323.47 J/K/mol
221.3 K | 324.32 J/K/mol
221.9 K | 325.15 J/K/mol
222.5 K | 325.93 J/K/mol
223.1 K | 326.77 J/K/mol
223.7 K | 327.6 J/K/mol
224.3 K | 328.43 J/K/mol
224.9 K | 329.26 J/K/mol
225.5 K | 330.08 J/K/mol
226.1 K | 330.9 J/K/mol
226.7 K | 331.78 J/K/mol
227.3 K | 332.65 J/K/mol
227.9 K | 333.52 J/K/mol
228.5 K | 334.39 J/K/mol
229.1 K | 335.29 J/K/mol
229.7 K | 336.19 J/K/mol
230.3 K | 337.06 J/K/mol
230.9 K | 337.92 J/K/mol
231.5 K | 338.75 J/K/mol
232.1 K | 339.57 J/K/mol
232.7 K | 340.41 J/K/mol
233.3 K | 341.25 J/K/mol
233.9 K | 342.13 J/K/mol
234.5 K | 343.04 J/K/mol
235.11 K | 343.9 J/K/mol
235.71 K | 344.83 J/K/mol
236.31 K | 345.73 J/K/mol
236.91 K | 346.55 J/K/mol
237.51 K | 347.39 J/K/mol
238.11 K | 348.22 J/K/mol
238.71 K | 348.99 J/K/mol
239.31 K | 349.79 J/K/mol
239.91 K | 350.56 J/K/mol
240.51 K | 351.35 J/K/mol
241.11 K | 352.21 J/K/mol
241.71 K | 353.05 J/K/mol
242.31 K | 353.86 J/K/mol
242.91 K | 354.74 J/K/mol
243.51 K | 355.63 J/K/mol
244.11 K | 356.56 J/K/mol
244.71 K | 357.47 J/K/mol
245.31 K | 358.35 J/K/mol
245.91 K | 359.26 J/K/mol
246.51 K | 360.13 J/K/mol
247.11 K | 360.95 J/K/mol
247.71 K | 361.75 J/K/mol
248.31 K | 362.5 J/K/mol
248.91 K | 363.25 J/K/mol
249.51 K | 363.98 J/K/mol
250.11 K | 364.75 J/K/mol
250.71 K | 365.53 J/K/mol
251.31 K | 366.32 J/K/mol
251.91 K | 367.13 J/K/mol
252.51 K | 367.96 J/K/mol
253.11 K | 368.8 J/K/mol
253.71 K | 369.64 J/K/mol
254.31 K | 370.52 J/K/mol
254.91 K | 371.43 J/K/mol
255.51 K | 372.34 J/K/mol
256.11 K | 373.31 J/K/mol
256.71 K | 374.34 J/K/mol
257.31 K | 375.35 J/K/mol
257.91 K | 376.38 J/K/mol
258.51 K | 377.4 J/K/mol
259.11 K | 378.39 J/K/mol
259.71 K | 379.39 J/K/mol
260.31 K | 380.35 J/K/mol
260.91 K | 381.29 J/K/mol
261.51 K | 382.27 J/K/mol
262.11 K | 383.27 J/K/mol
262.71 K | 384.28 J/K/mol
263.31 K | 385.29 J/K/mol
263.91 K | 386.31 J/K/mol
264.51 K | 387.3 J/K/mol
265.11 K | 388.31 J/K/mol
265.71 K | 389.33 J/K/mol
266.32 K | 390.32 J/K/mol
266.92 K | 391.31 J/K/mol
267.52 K | 392.31 J/K/mol
268.12 K | 393.27 J/K/mol
268.72 K | 394.25 J/K/mol
269.32 K | 395.21 J/K/mol
269.92 K | 396.11 J/K/mol
270.52 K | 397.07 J/K/mol
271.12 K | 398.06 J/K/mol
271.72 K | 399.04 J/K/mol
272.32 K | 400.09 J/K/mol
272.92 K | 401.2 J/K/mol
273.52 K | 402.31 J/K/mol
274.12 K | 403.5 J/K/mol
274.72 K | 404.68 J/K/mol
275.32 K | 405.86 J/K/mol
275.92 K | 407.08 J/K/mol
276.52 K | 408.31 J/K/mol
277.12 K | 409.49 J/K/mol
277.72 K | 410.7 J/K/mol
278.32 K | 411.89 J/K/mol
278.92 K | 413.04 J/K/mol
279.52 K | 414.18 J/K/mol
280.12 K | 415.29 J/K/mol
280.72 K | 416.38 J/K/mol
281.32 K | 417.47 J/K/mol
281.92 K | 418.55 J/K/mol
282.52 K | 419.65 J/K/mol
